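Dose response: 5 concentrations. Exposure: 48 h. Format: 96-well plates. Endpoint: linear interpolation; highest concentration if not reached. GI50: concentration for 50% inhibition of growth. TGI is the concentration that stops growth completely.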
Experiments:
Assay in all cases: NCI-60 cell line screen, 48 h
SF-295 CNS = system: SF-295 CNS
SNB-75 CNS = system: SNB-75 CNS
SK-MEL-28 melanoma = system: SK-MEL-28 melanoma
OVCAR-3 ovarian = system: OVCAR-3 ovarian
SW-620 colon = system: SW-620 colon
DLD-1 colon = system: DLD-1 colon
SF-268 CNS = system: SF-268 CNS
OVCAR-4 ovarian = system: OVCAR-4 ovarian
RXF-631 renal = system: RXF-631 renal
TK-10 renal = system: TK-10 renal
HT29 colon = system: HT29 colon
CCRF-CEM leukemia = system: CCRF-CEM leukemia
K-562 leukemia = system: K-562 leukemia
UACC-62 melanoma = system: UACC-62 melanoma
HCC-2998 colon = system: HCC-2998 colon
NCI-H226 lung = system: NCI-H226 lung
786-0 renal = system: 786-0 renal
OVCAR-8 ovarian = system: OVCAR-8 ovarian
MOLT-4 leukemia = system: MOLT-4 leukemia
HOP-18 NSCLC = system: HOP-18 NSCLC
HCT-15 colon = system: HCT-15 colon
DMS 273 small cell lung = system: DMS 273 small cell lung
SK-MEL-2 melanoma = system: SK-MEL-2 melanoma
A498 renal = system: A498 renal
A549 NSCLC = system: A549 NSCLC
NCI-H460 lung = system: NCI-H460 lung
HCT-116 colon = system: HCT-116 colon
NCI-H522 lung = system: NCI-H522 lung
IGROV1 ovarian = system: IGROV1 ovarian
UO-31 renal = system: UO-31 renal
UACC-257 melanoma = system: UACC-257 melanoma
SNB-78 CNS = system: SNB-78 CNS
DMS 114 small cell lung = system: DMS 114 small cell lung
COLO 205 colon = system: COLO 205 colon
HOP-92 NSCLC = system: HOP-92 NSCLC
MALME-3M melanoma = system: MALME-3M melanoma
LOX IMVI melanoma = system: LOX IMVI melanoma
RPMI-8226 leukemia = system: RPMI-8226 leukemia
M14 melanoma = system: M14 melanoma
SK-OV-3 ovarian = system: SK-OV-3 ovarian
RXF 393 renal = system: RXF 393 renal
HL-60(TB) leukemia = system: HL-60(TB) leukemia
SNB-19 CNS = system: SNB-19 CNS
SF-539 CNS = system: SF-539 CNS
SN12C renal = system: SN12C renal
M19-MEL melanoma = system: M19-MEL melanoma
SK-MEL-5 melanoma = system: SK-MEL-5 melanoma
NCI-H23 lung = system: NCI-H23 lung
EKVX NSCLC = system: EKVX NSCLC
LXFL 529 NSCLC = system: LXFL 529 NSCLC
CAKI-1 renal = system: CAKI-1 renal
KM12 colon = system: KM12 colon
U251 CNS = system: U251 CNS
HOP-62 NSCLC = system: HOP-62 NSCLC
ACHN renal = system: ACHN renal
SR leukemia = system: SR leukemia
OVCAR-5 ovarian = system: OVCAR-5 ovarian
KM20L2 colon = system: KM20L2 colon

[O-]c1c(-c2ccccc2)[se]c(-c2ccccc2)[n+]1-c1ccccc1
TGI (SF-295 CNS): 12.1 µM
TGI (SNB-75 CNS): 22 µM
TGI (SK-MEL-28 melanoma): 22.7 µM
TGI (OVCAR-3 ovarian): 21.9 µM
TGI (SW-620 colon): 34.2 µM
TGI (DLD-1 colon): 4.48 µM
TGI (SF-268 CNS): 21.6 µM
TGI (OVCAR-4 ovarian): 5.95 µM
TGI (RXF-631 renal): 29.9 µM
TGI (TK-10 renal): 20.6 µM
TGI (HT29 colon): 52.9 µM
TGI (CCRF-CEM leukemia): 31.8 µM
TGI (K-562 leukemia): > 100 µM
TGI (UACC-62 melanoma): 27.5 µM
TGI (HCC-2998 colon): 19.3 µM
TGI (NCI-H226 lung): 9.11 µM
TGI (786-0 renal): 22.5 µM
TGI (OVCAR-8 ovarian): 13.7 µM
TGI (MOLT-4 leukemia): 92.9 µM
TGI (HOP-18 NSCLC): 25.6 µM
TGI (HCT-15 colon): 31.2 µM
TGI (DMS 273 small cell lung): 37.1 µM
TGI (SK-MEL-2 melanoma): 19.8 µM
TGI (A498 renal): 26.7 µM
TGI (A549 NSCLC): 35.9 µM
TGI (NCI-H460 lung): 38.7 µM
TGI (HCT-116 colon): 11.4 µM
TGI (NCI-H522 lung): 8.42 µM
TGI (IGROV1 ovarian): 13.6 µM
TGI (UO-31 renal): 9.84 µM
TGI (UACC-257 melanoma): 25.3 µM
TGI (SNB-78 CNS): 14 µM
TGI (DMS 114 small cell lung): 18.7 µM
TGI (COLO 205 colon): 31.3 µM
TGI (HOP-92 NSCLC): 38.1 µM
TGI (MALME-3M melanoma): 29.3 µM
TGI (LOX IMVI melanoma): 30.5 µM
TGI (RPMI-8226 leukemia): > 100 µM
TGI (M14 melanoma): 17.6 µM
TGI (SK-OV-3 ovarian): 39.2 µM
TGI (RXF 393 renal): 8.45 µM
TGI (HL-60(TB) leukemia): 5.51 µM
TGI (SNB-19 CNS): 20.2 µM
TGI (SF-539 CNS): 4.35 µM
TGI (SN12C renal): 17.9 µM
TGI (M19-MEL melanoma): 21.3 µM
TGI (SK-MEL-5 melanoma): 26.5 µM
TGI (NCI-H23 lung): 29.7 µM
TGI (EKVX NSCLC): 35.4 µM
TGI (LXFL 529 NSCLC): 27.8 µM
TGI (CAKI-1 renal): 34.1 µM
TGI (KM12 colon): 23.1 µM

CCOc1ccccc1N=C(NC(=O)CC)SC
GI50 (SF-295 CNS): > 100 µM
TGI (SF-295 CNS): > 100 µM
GI50 (SNB-75 CNS): > 10 µM
TGI (SNB-75 CNS): > 100 µM
GI50 (SK-MEL-28 melanoma): > 100 µM
TGI (SK-MEL-28 melanoma): > 100 µM
GI50 (U251 CNS): > 100 µM
TGI (U251 CNS): > 100 µM
GI50 (OVCAR-3 ovarian): > 100 µM
TGI (OVCAR-3 ovarian): > 100 µM
GI50 (SW-620 colon): > 100 µM
TGI (SW-620 colon): > 100 µM
GI50 (DLD-1 colon): > 10 µM
TGI (DLD-1 colon): > 100 µM
GI50 (HOP-62 NSCLC): > 100 µM
TGI (HOP-62 NSCLC): > 100 µM
GI50 (SF-268 CNS): > 100 µM
TGI (SF-268 CNS): > 100 µM
GI50 (ACHN renal): > 100 µM
TGI (ACHN renal): > 100 µM
GI50 (OVCAR-4 ovarian): > 10 µM
TGI (OVCAR-4 ovarian): > 100 µM
GI50 (RXF-631 renal): > 100 µM
TGI (RXF-631 renal): > 100 µM
TGI (TK-10 renal): > 10 µM
GI50 (HT29 colon): > 100 µM
TGI (HT29 colon): > 100 µM
GI50 (CCRF-CEM leukemia): > 10 µM
TGI (CCRF-CEM leukemia): > 100 µM
GI50 (SR leukemia): > 100 µM
TGI (SR leukemia): > 100 µM
GI50 (K-562 leukemia): > 100 µM
TGI (K-562 leukemia): > 100 µM
GI50 (UACC-62 melanoma): > 100 µM
TGI (UACC-62 melanoma): > 100 µM
GI50 (HCC-2998 colon): > 100 µM
TGI (HCC-2998 colon): > 100 µM
GI50 (NCI-H226 lung): > 100 µM
TGI (NCI-H226 lung): > 100 µM
GI50 (786-0 renal): > 100 µM
TGI (786-0 renal): > 100 µM
GI50 (OVCAR-8 ovarian): > 10 µM
TGI (OVCAR-8 ovarian): > 100 µM
GI50 (MOLT-4 leukemia): > 10 µM
TGI (MOLT-4 leukemia): > 100 µM
TGI (HOP-18 NSCLC): > 10 µM
GI50 (HCT-15 colon): > 10 µM
TGI (HCT-15 colon): > 100 µM
GI50 (DMS 273 small cell lung): > 100 µM
TGI (DMS 273 small cell lung): > 100 µM
GI50 (SK-MEL-2 melanoma): > 10 µM
TGI (SK-MEL-2 melanoma): > 100 µM
GI50 (A498 renal): > 100 µM
TGI (A498 renal): > 100 µM
GI50 (A549 NSCLC): > 100 µM
TGI (A549 NSCLC): > 100 µM
GI50 (NCI-H460 lung): > 100 µM
TGI (NCI-H460 lung): > 100 µM
GI50 (HCT-116 colon): > 10 µM
TGI (HCT-116 colon): > 100 µM
GI50 (NCI-H522 lung): > 100 µM
TGI (NCI-H522 lung): > 100 µM
GI50 (IGROV1 ovarian): > 100 µM
TGI (IGROV1 ovarian): > 100 µM
GI50 (UO-31 renal): > 100 µM
TGI (UO-31 renal): > 100 µM
GI50 (UACC-257 melanoma): > 100 µM
TGI (UACC-257 melanoma): > 100 µM
TGI (SNB-78 CNS): > 10 µM
TGI (DMS 114 small cell lung): > 10 µM
TGI (COLO 205 colon): > 10 µM
TGI (HOP-92 NSCLC): > 10 µM
GI50 (MALME-3M melanoma): > 10 µM
TGI (MALME-3M melanoma): > 100 µM
GI50 (LOX IMVI melanoma): > 100 µM
TGI (LOX IMVI melanoma): > 100 µM
GI50 (RPMI-8226 leukemia): > 10 µM
TGI (RPMI-8226 leukemia): > 100 µM
GI50 (M14 melanoma): > 100 µM
TGI (M14 melanoma): > 100 µM
TGI (SK-OV-3 ovarian): > 10 µM
GI50 (RXF 393 renal): > 100 µM
TGI (RXF 393 renal): > 100 µM
GI50 (HL-60(TB) leukemia): > 100 µM
TGI (HL-60(TB) leukemia): > 100 µM
GI50 (SNB-19 CNS): > 100 µM
TGI (SNB-19 CNS): > 100 µM
GI50 (SF-539 CNS): > 100 µM
TGI (SF-539 CNS): > 100 µM
GI50 (SN12C renal): > 10 µM
TGI (SN12C renal): > 100 µM
GI50 (M19-MEL melanoma): > 100 µM
TGI (M19-MEL melanoma): > 100 µM
TGI (SK-MEL-5 melanoma): > 10 µM
TGI (OVCAR-5 ovarian): > 10 µM
GI50 (KM20L2 colon): > 100 µM
TGI (KM20L2 colon): > 100 µM
GI50 (NCI-H23 lung): > 10 µM
TGI (NCI-H23 lung): > 100 µM
GI50 (EKVX NSCLC): > 100 µM
TGI (EKVX NSCLC): > 100 µM
GI50 (LXFL 529 NSCLC): > 100 µM
TGI (LXFL 529 NSCLC): > 100 µM
GI50 (CAKI-1 renal): > 100 µM
TGI (CAKI-1 renal): > 100 µM
GI50 (KM12 colon): > 100 µM
TGI (KM12 colon): > 100 µM
